Measurements from patent publication US20060024691A1, “Novel pathways in the etiology of cancer” (Buck Institute for Age Research, priority 2004, published 2006).
Entries after “also recorded” stand apart in the source; their conditions may differ. Where two headings read alike, the source gives them in different places. Peptide text beside a SMILES is read from it. * marks the point of attachment. Cbz = O=C(OCc1ccccc1)*

Columns and labels:
[1] = tested on: ERα Ser-167 (67 kD ERα and 52 kD ERα variant); type: cell-based, human; conditions: for block of K3-induced p-Ser-167 ERα formation: MCF7 cells, co-treatment with K3
Procedure: (§1) Human breast cancer cell lines MCF7 and T47D were obtained from the American Type Culture Collection (ATCC). MCF7 cells were maintained in Dulbecco's Modification of Eagle's Medium (Cellgro) supplemented with 10% fetal bovine serum (Cellgro), 1% penicillin/streptomycin (Cellgro) and 10 μg/ml insulin (Sigma). T47D cells were maintained in RPMI (Cellgro) supplemented with 10% fetal bovine serum, 1% penicillin/streptomycin and 10 μg/ml insulin. Treatment conditions for both cell lines involved plating ˜1×10^6 cells in normal media onto 10 cm dishes, attachment and growth for 24 hours followed by a change to estrogen-free culture conditions (phenol red-free DME H-16 supplemented with 10% charcoal stripped serum, 1% penicillin/streptomycin and 10 μg/ml insulin) for an additional 24 hours. Cells were then treated as indicated for 30 minutes before extract preparation. Indicated conditions involved 30 minute pretreatments.
(§2) Following aspiration of the media and one ice cold PBS wash, cells growing on 10 cm dishes were harvested using a cell scraper and 0.7 ml of ice cold cell lyses buffer ([…], 1.5 mM MgCl2, […] KCl, 1 mM DTT, […] NaFl, 5% glycerol, 0.45% NP40 (Igepal, Sigma) and mincomplete protease inhibitors (Roche)). […] For preparation of high-salt nuclear extracts (nucleoplasm), isolated nuclei were resuspended for 20 minutes in ice cold extraction buffer (0.4 M NaCl, 25 mM Tris pH 7.5, 1 mM DTT, 20% glycerol, 10 mM NaFl and min-complete protease inhibitors (Roche)) followed by a 4° C. centrifugation at 16,000×g for 15 minutes.
(§3) Equal amounts of protein from the various extracts were mixed with 2× SDS sample buffer (125 mM Tris pH6.8, 20% glycerol, 2% SDS, 0.28 M 2-mercaptoethanol and0.5% Bromphenol Blue), heated for 5 minutes at 90° C. and electrophoresed on NuPAGE 4-12% Bis-Tris gels (Invitrogen) using NuPAGE MOPS SDS running buffer (Invitrogen) and full range Rainbow recombinant protein molecular weight markers (Amersham Pharmacia). […] Membranes were then blocked for 30 minutes in blocking buffer (150 mM NaCl, 20 mM Tris pH 7.5, 0.3% Tween-20 and 4% Nonfat dry milk powerby weight).

[2] = tested on: ERα Ser-118 (67 kD ERα and 52 kD ERα variant); type: cell-based, human; conditions: for Ser-118 phosphorylation of ER induced by treatment: MCF-7/T47D cells, charcoal-stripped media, 30 min, menadione 100 μM, estradiol 10 nM, other quinones at equitoxic doses
Procedure: as §1, §2, §3

ERK1/ERK2 = experiment: MAPK activation: ERK1/ERK2 phosphorylation, Western blot; type: cell-based, human; conditions: MCF7 cells; for effect on K3 induced phospho-ERK1/2 formation (MAPK activation): co-treatment with K3
Procedure: as §1
For preparation of high-salt nuclear extracts (nucleoplasm), isolated nuclei were resuspended for 20 minutes in ice cold extraction buffer (0.4 M NaCl, 25 mM Tris pH 7.5, 1 mM DTT, 20% glycerol, 10 mM NaFl and min-complete protease inhibitors (Roche)) followed by a 4° C. centrifugation at 16,000×g for 15 minutes.
Membranes were then blocked for 30 minutes in blocking buffer (150 mM NaCl, 20 mM Tris pH 7.5, 0.3% Tween-20 and 4% Nonfat dry milk powerby weight).

NFκB = NFκB DNA-binding by EMSA, nuclear extracts of menadione treated MCF-7 cells; type: cell-based, human; conditions: 30 min pretreatment: MG-132 25 μM, PS-341 5 μM, PDTC 100 μM, PA 50 μM; then menadione 100 μM 30 min
Procedure: (§4) PS-341 was kindly provided by Millennium Pharmaceuticals Inc. (Cambridge, Mass.). […] For assessment of combined treatment effects on cell viability, 2×10^4 cells (MCF-7, MCF-7/HER2, BT474) grown in 24-well plates were first treated with tamoxifen (dissolved in ethanol) and/or parthenolide (dissolved in DMSO); for the combination treatment pathenolide was added 4 h before addition of tamoxifen. Cell viability was measured 18 h after tamoxifen treatment using the sulforhodamine B (SRB) assay (Skehan, et al. 1990). Briefly, cells fixed with trichloroacetic acid were stained for 30 min with 0.4% SRB dissolved in 1% acetic acid. Unbound dye was removed by four washes with 1% acetic acid, and protein-bound dye was extracted with 10 mM unbuffered Tris base [tris(hydroxymethyl)aminomethane] for determination of optical density at 564 nm.
(§5) Fractionation of control and treated cells into cytoplasmic and nuclear extracts was performed as previously described (Dignam et al., 1983), with minor modification. Cells harvested on ice were washed twice with cold PBS, scraped and resuspended in 1.0 ml hypotonic buffer (20 mM HEPES, pH 7.0; 10 mM KCl; 1 mM MgCl2; 0.1% Triton X-100; 20% glycerol; 0.5 mM DTT) containing a cocktail of protease inhibitors (Mini CompleteTM protease inhibitors, Roche Diagnostics, Mannheim, Germany). The harvested cells were Dounce homogenized on ice, the mixture centrifuged at 3,000 rpm at 4° C. (5 min), and the cytoplasmic fraction separated from the nuclear pellet which was resuspended in elution buffer (20 mM HEPES, pH 7.0; 10 mM KCl; 1 mM MgCl2; 0.42 M NaCl; 0.1% Triton X-100; 20% glycerol; 0.5 mM DTT), supplemented with protease inhibitors. After 20 min at 4° C. the buffered mixture was centrifuged at 14,000 rpm at 4° C. (10 min) to obtain solubilized nuclear extracts which were then stored in aliquots at −80° C. after protein determination (Bradford; BioRad, Hercules, Calif.) and for subsequent NFkB DNA-binding assays.
NFκB DNA-binding activity was measured by two different techniques. Analogous to previous tumor extract scoring of Sp1 DNA-binding protein (Quong et al., 2002), total specific NFκB DNA-binding protein was determined by electrophoretic morbility shift assay (EMSA) as follows. A duplexed oligonucleotide probe (Promega, Madison, Wis.) with sense strand containing the decameric κB consensus binding sequence (underlined) 5′-[…]-3′(SEQ ID NO:4) was end-labeled with [γ-P32]ATP (PerkinElmer, Boston, Mass.) using T4 polynucleotide kinase (Promega, Madison, Wis.) and purified with G-50 Sephadex Bio-Spin columns (BioRad, Hercules, Calif.). […]

[3] = tested on: p50 and p65 NFκB subunits; experiment: Immunoblot of nuclear p50 and p65 NFκB subunits in MCF-7 cells; type: cell-based, human; conditions: MCF-7; MG-132 25 μM, PS-341 5 μM, PDTC 100 μM, PA 50 μM
Procedure: as §4, §5
Antibodies against p50 NFκB, p65 NFκB, IκB, and β-actin proteins were commercially obtained (Santa Cruz Biotechnology, Santa Cruz, Calif.; and Abcam Inc., Cambridge, Mass.). […]; 4% SDS; 20% glycerol; and 10% 2-mercaptoethanol) and resolved by electrophoresis in 4-12% Bis-Tris SDS gradient gels in morpholinepropane sulfonic acid (MOPS) buffer. Separated proteins were transferred onto polyvinylidene difluoride membranes (Millipore Co., Billerica, Mass.), blocked with 5% non-fat milk in PBS containing 0.1% Tween-20, and membranes immunoblotted with the indicated antibodies in blocking solution. […]

NF-κB p50 = NF-κB p50 DNA-binding (TransAM assay); type: cell-based, human; conditions: ER-positive cells, 10 μM, 30 min
Procedure: (§6) Quantitative p50 and p65 NFκB DNA-binding were also determined using ELISA based Trans-AMTM assays in accordance with the manufacturer's instructions (ActiveMotif; Carlsbad, Calif.). In these commercial kits, a duplexed NFκB oligonucleotide containing the same κB consensus sequence described for the EMSA assay above is attached to the surface of 96-well plates. Activated NFκB in tumor or nuclear extracts that is first bound to the attached oligonucleotide is specifically and quantitatively detected by subsequent incubation with p50 or p65 specific antibody followed by an enzyme (HRP)-linked secondary for colorimetric (OD450 nm absorbance) scoring. Standard curves to establish the linear assay range for Trans-AMTM determinations of p50 and p65 NFκB DNA-binding activities were performed using graded amounts of control (IL-1 treated) HeLa cell nuclear extracts (0.625 to 10 μg/well) and for comparison with a panel of nuclear extracts from six human breast cancer cell lines (MCF-7, T47D, BT474, MCF-7/HER2, SkBr3, MDA-231).

NF-κB p65 = NF-κB p65 DNA-binding (TransAM assay); type: cell-based, human; conditions: ER-positive cells, 10 μM, 30 min
Procedure: as §6

MCF-7 cells = conditions: 5-7 days, concentrations approaching 1000 nM; cited from earlier work
BT474 cells = conditions: 5-7 days, concentrations approaching 1000 nM; cited from earlier work
MCF-7/HER2 cells = conditions: 5-7 days, concentrations approaching 1000 nM; cited from earlier work

C[C@]12CC[C@@H]3c4ccc(O)c(O)c4CC[C@H]3[C@@H]1CCC2=O [4-OHE, 4-hydroxyestrone]
Ser-167 phosphorylation of ERα induced by treatment ([1]; MCF7 nuclear extracts, 30 min): induced Ser-118 and Ser-167 phosphorylation of the 52 kD ERα nuclear variant
Ser-118 phosphorylation of ER induced by treatment [2]: induced Ser-118 and Ser-167 phosphorylation of the 52 kD ERα nuclear variant
ERK1/ERK2 phosphorylation induced by treatment (ERK1/ERK2; 30 minutes): phosphorylating ERK1/2

COC1=C(OC)C(=O)c2ccccc2C1=O [DMNQ]
Ser-118 phosphorylation of ER induced by treatment [2]: no Ser˜118 phosphorylation

CC(C)C[C@@H](C=O)NC(=O)[C@H](CC(C)C)NC(=O)[C@H](CC(C)C)NC(=O)OCc1ccccc1 [MG-132] (Cbz-Leu-Leu-Leu-aldehyde)
inhibition of menadione-induced NFκB DNA-binding / activation (NFκB): complete inhibition; also recorded: completely inhibited
nuclear p50 and p65 NFκB subunit content, inhibitor pretreatment before menadione [3]: marked reductions
decrease in the DNA-binding of p50 subunit (NF-κB p50): 60%
decrease in the DNA-binding of p65 subunit (NF-κB p65): 60%

CC(=O)N[C@@H](CS)C(=O)O [NAC, N-acetyl cysteine]
block of K3-induced p-Ser-167 ERα formation [1]: blocked
block of K3-induced p-Ser-167 ERα formation ([1]; listed as N-acetyl cysteine): effectively block
effect on K3 induced phospho-ERK1/2 formation (MAPK activation) (ERK1/ERK2): blocked; also recorded: completely block
effect on K3 induced phospho-ERK1/2 formation (MAPK activation) (ERK1/ERK2; listed as N-acetyl cysteine): without inhibiting MAPK activity

S=C(S)N1CCCC1 [PDTC, pyrrolidine dithiocarbamate]
inhibition of menadione-induced NFκB DNA-binding / activation (NFκB): complete inhibition
nuclear p50 and p65 NFκB subunit content, inhibitor pretreatment before menadione [3]: marked reductions

CC(C)C[C@H](NC(=O)[C@H](Cc1ccccc1)NC(=O)c1cnccn1)B(O)O [PS-341]
inhibition of menadione-induced NFκB DNA-binding / activation (NFκB): complete inhibition; also recorded: completely inhibited
nuclear p50 and p65 NFκB subunit content, inhibitor pretreatment before menadione [3]: marked reductions

C[S+]([O-])c1ccc(-c2nc(-c3ccncc3)c(-c3ccc(F)cc3)[nH]2)cc1 (stereo not drawn) [SB203580]
block of K3-induced p-Ser-167 ERα formation [1]: no affect

N#CC(=C(/N)Sc1ccccc1N)/C(C#N)=C(\N)Sc1ccccc1N [U0126]
effect on K3 induced phospho-ERK1/2 formation (MAPK activation) (ERK1/ERK2): only minimal activation detectable

O=c1oc2ccccc2c(O)c1Cc1c(O)c2ccccc2oc1=O [dicumarol]
block of K3-induced p-Ser-167 ERα formation [1]: virtually complete inhibition; also recorded: effectively block
inhibition of K3-induced p-Ser-118 ERα ([2]; MCF7 cells, dicumarol added concurrently with K3): at least 75%

O=C1C=CC(=O)C=C1 [p-benzoquinone]
Ser-118 phosphorylation of ER induced by treatment [2]: no Ser˜118 phosphorylation

CC/C(=C(\c1ccccc1)c1ccc(OCCN(C)C)cc1)c1ccccc1 [tamoxifen, [Z]-1-[p-dimethylaminoethoxyphenyl]-1,2-diphenyl-1 butene]
reduction in viable cell number (MCF-7 cells): ~50%
cellular reductions (viable cell number) (BT474 cells): ~25%
cellular reductions (viable cell number) (MCF-7/HER2 cells): ~25%
